This note sets out measurements from patent US20170152239A1, “BENZAMIDE AND HETEROBENZAMIDE COMPOUNDS” (PFIZER INC., priority 2012, published 2017).

The assay deals with WT EZH2 (EZH2 4 protein complex: EZH2, EED, SUZ12, RbAp48) (Homo sapiens, UniProt O75530+Q09028+Q15022+Q15910). The assay is described as follows: WT EZH2 nucleosome assay. In kind it is biochemical. Conditions: nucleosome assay, 5 nM EZH2 4-protein complex, 1.5 μM SAM; read-out: WT EZH2 IC50. On the procedure: Nucleosome Assay Protocol:
A. Compound preparation • 1. Prepare 10 mM stock solutions in 100% DMSO from solid material • 2. Serial dilute 10 mM compound stocks either 2 or 3-fold in 100% DMSO to generate compounds for 11 point dose response
B. Reagent preparation • 1. Prepare 1× assay buffer containing 100 mM Tris pH 8.5, 4 mM DTT and 0.01% Tween-20 • 2. Dilute purified HeLA oligonucleosomes and recombinant histone H1 (New England Biolabs) in assay buffer to 1.67×. • 3. Dilute EZH2 4 protein complex (EZH2, EED, SUZ12, RbAp48) to 3.5× in assay buffer • 4. Prepare 10×^3H SAM solution in assay buffer using 0.94 μCi/well of radioactive SAM (Perkin Elmer) and sufficient non-labeled SAM (Sigma) for 1.5 μM final concentration. • 5. Dilute TCA to 20% in DI water
C. Enzyme reaction • 1. Final reaction conditions are 5 nM EZH2 4-protein complex, 1.5 μM SAM, 25 μg/mL oligonucleosomes, 50 nM rH1 in a 50 μl reaction volume. • 2. Add 1 μl of diluted compound to the assay plate (96-well V-bottom polypropylene plates) or 1 μl of DMSO for control wells. • 3. Add 30 μl of nucleosomes to the assay plate • 4. Add 14 μl of EZH2 4 protein complex to the assay plate • 5. Add 5 μl of ^3H SAM to start the reaction. • 6. Stop the reaction after 60 minutes with the addition of 100 μl of 20% TCA • 7. Transfer 150 μl of quenched reaction into a prepared filterplate (Millipore #MSIPN4B10) • 8. Apply vacuum to the filterplate to filter the reaction mix through the membrane. • 9. Wash the filterplate with 8×200 μl of PBS, blot dry and dry in an oven for 30 minutes • 10. Add 50 μl of microscint-20 scintillation fluid (Perkin Elmer) to each well, wait 30 minutes and count on a liquid scintillation counter.
D. Data analysis • 1. IC50 values were determined by fitting the data to a 4-parameter IC50 equation using proprietary curve fitting software.
Wild type (WT) EZH2% Effect at 20 μM and IC50 values (μM) generated in WT EZH2 or EZH2PRC2 mutant Y641N nucleosome assays are provided in Table 3 below. A blank entry in the table indicates the data was not generated in that assay.

Chain of WT EZH2 (EZH2 4 protein complex: EZH2, EED, SUZ12, RbAp48) (Q15910 whole entry): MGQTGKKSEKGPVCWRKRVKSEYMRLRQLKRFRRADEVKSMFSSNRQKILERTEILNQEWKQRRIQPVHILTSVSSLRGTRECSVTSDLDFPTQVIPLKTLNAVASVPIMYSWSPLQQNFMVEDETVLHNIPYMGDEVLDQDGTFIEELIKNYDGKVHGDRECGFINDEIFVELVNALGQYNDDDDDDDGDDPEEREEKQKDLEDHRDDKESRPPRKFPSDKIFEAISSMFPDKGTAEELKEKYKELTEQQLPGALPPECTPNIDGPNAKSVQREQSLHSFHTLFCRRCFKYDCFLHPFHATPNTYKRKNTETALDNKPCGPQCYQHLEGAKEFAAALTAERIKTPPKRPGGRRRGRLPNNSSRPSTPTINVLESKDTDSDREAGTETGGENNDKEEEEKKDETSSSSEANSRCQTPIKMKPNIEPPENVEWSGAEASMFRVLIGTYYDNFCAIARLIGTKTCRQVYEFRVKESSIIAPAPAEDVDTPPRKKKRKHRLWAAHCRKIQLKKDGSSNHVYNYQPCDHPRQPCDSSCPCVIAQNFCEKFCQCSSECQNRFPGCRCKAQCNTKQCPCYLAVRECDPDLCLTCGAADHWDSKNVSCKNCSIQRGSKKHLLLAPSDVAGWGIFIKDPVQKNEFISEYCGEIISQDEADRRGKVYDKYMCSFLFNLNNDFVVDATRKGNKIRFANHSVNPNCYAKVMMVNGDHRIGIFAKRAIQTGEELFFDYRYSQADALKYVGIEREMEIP
Chain of WT EZH2 (EZH2 4 protein complex: EZH2, EED, SUZ12, RbAp48) (O75530 whole entry partner): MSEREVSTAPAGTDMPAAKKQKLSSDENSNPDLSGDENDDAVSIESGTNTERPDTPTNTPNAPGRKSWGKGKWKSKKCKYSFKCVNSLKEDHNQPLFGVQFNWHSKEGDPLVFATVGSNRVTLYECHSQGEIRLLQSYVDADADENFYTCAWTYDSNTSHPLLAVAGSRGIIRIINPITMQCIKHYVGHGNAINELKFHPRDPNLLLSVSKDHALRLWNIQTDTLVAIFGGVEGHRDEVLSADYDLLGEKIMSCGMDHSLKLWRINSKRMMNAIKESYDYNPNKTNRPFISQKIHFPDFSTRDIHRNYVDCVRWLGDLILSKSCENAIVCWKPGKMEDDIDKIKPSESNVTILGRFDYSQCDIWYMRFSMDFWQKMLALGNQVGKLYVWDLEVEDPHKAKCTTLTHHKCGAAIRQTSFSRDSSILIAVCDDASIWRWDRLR
Chain of WT EZH2 (EZH2 4 protein complex: EZH2, EED, SUZ12, RbAp48) (Q15022 whole entry partner): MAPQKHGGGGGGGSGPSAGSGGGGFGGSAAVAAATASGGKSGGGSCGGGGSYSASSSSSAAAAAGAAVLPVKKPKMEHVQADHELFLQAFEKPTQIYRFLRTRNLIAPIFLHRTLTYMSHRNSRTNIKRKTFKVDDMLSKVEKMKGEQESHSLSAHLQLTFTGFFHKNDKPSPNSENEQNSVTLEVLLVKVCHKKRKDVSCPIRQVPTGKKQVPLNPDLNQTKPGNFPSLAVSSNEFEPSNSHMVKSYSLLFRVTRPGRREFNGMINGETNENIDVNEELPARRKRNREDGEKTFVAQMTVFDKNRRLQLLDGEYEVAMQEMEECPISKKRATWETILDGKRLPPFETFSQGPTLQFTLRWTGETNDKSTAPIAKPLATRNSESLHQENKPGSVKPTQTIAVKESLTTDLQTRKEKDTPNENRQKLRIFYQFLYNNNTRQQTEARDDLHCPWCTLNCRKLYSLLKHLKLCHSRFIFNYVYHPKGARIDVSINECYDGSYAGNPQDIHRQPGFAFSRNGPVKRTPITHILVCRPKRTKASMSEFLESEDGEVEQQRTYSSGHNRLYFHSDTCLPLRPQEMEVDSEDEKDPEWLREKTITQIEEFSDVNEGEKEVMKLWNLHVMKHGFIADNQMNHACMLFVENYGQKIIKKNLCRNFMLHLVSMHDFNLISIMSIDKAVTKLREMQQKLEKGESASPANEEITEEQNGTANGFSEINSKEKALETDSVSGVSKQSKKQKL
Chain of WT EZH2 (EZH2 4 protein complex: EZH2, EED, SUZ12, RbAp48) (Q09028 whole entry partner): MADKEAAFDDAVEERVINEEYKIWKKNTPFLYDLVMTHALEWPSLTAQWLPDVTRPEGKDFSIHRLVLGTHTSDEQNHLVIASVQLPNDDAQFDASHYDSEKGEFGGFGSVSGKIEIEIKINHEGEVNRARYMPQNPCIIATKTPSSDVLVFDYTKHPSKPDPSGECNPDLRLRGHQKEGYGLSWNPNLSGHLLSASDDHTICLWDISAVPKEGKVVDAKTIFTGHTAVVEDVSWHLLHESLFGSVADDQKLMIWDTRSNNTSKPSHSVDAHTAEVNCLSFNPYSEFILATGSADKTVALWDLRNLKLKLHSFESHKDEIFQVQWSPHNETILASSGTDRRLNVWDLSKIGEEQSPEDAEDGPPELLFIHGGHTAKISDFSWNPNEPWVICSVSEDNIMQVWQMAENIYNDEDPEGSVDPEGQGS

As to `Cc1cc(C)c(CNC(=O)c2nc(-c3ccc(N)nc3)nc(N3CCC[C@@H]3C)c2C)c(=O)[nH]1` [Example 45, 2-(6-aminopyridin-3-yl)-N-[(4,6-dimethyl-2-oxo-1,2-dihydropyridin-3-yl)methyl]-5-methyl-6-[(2S)-2-methylpyrrolidin-1-yl]pyrimidine-4-carboxamide], the IC50 (commonly the concentration that inhibits the measured activity by half) turned out to be 1.53 µM.
In the case of `CNc1ncc(-c2nc(C(=O)NCc3c(C)cc(C)[nH]c3=O)c(C)c(-c3ccnn3C)n2)cn1` [Example 47, N-[(4,6-dimethyl-2-oxo-1,2-dihydropyridin-3-yl)methyl]-5-methyl-2′-(methylamino)-6-(1-methyl-1H-pyrazol-5-yl)-2,5′-bipyrimidine-4-carboxamide] it was 1.7 µM; in that of `Cc1cc(C)c(CNC(=O)c2cc(Cl)cc(-n3ncnc3C)c2C)c(=O)[nH]1` [Example 49, 5-chloro-N-[(4,6-dimethyl-2-oxo-1,2-dihydropyridin-3-yl)methyl]-2-methyl-3-(5-methyl-1H-1,2,4-triazol-1-yl)benzamide], 1.95 µM.
The figure for `Cc1cc(C)c(CNC(=O)c2nc(-c3cnc(N(C)C)nc3)nc(-c3ccnn3C)c2C)c(=O)[nH]1` [Example 51, 2′-(dimethylamino)-N-[(4,6-dimethyl-2-oxo-1,2-dihydropyridin-3-yl)methyl]-5-methyl-6-(1-methyl-1H-pyrazol-5-yl)-2 ,5′-bipyrimidine-4-carboxamide] is 2.11 µM; for `Cc1cc(C)c(CNC(=O)c2cc(Cl)cc(-n3nnnc3C)c2C)c(=O)[nH]1` [Example 52, 5-chloro-N-[(4,6-dimethyl-2-oxo-1,2-dihydropyridin-3-yl)methyl]-2-methyl-3-(5-methyl-1H-tetrazol-1-yl)benzamide] it is 2.46 µM; for `Cc1cc(C)c(CNC(=O)c2ncnc(N3CCCC3C(F)(F)F)c2C)c(=O)[nH]1` (stereo not drawn) [Example 53, N-[(4,6-dimethyl-2-oxo-1,2-dihydropyridin-3-yl)methyl]-5-methyl-6-[2-(trifluoromethyl)pyrrolidin-1-yl]pyrimidine-4-carboxamide] it is 2.52 µM.
The figure for `Cc1cc(C)c(CNC(=O)c2nc(C3CC3)nc(N3CCC[C@@H]3C)c2C)c(=O)[nH]1` [Example 54, 2-cyclopropyl-N-[(4,6-dimethyl-2-oxo-1,2-dihydropyridin-3-yl)methyl]-5-methyl-6-[(2S)-2-methylpyrrolidin-1-yl]pyrimidine-4-carboxamide] is 2.83 µM; for `Cc1cc(C)c(CNC(=O)c2nc(N3[C@@H]4CC[C@H]3COC4)nc(N3CCC[C@@H]3C)c2C)c(=O)[nH]1` [Example 55, N-[(4,6-dimethyl-2-oxo-1,2-dihydropyridin-3-yl)methyl]-5-methyl-6-[(2S)-2 - methylpyrrolidin-1-yl]-2-[(1R,5S)-3-oxa-8-azabicyclo[3.2.1]oct-8-yl]pyrimidine-4-carboxamide] it is 2.89 µM.
Consider `Cc1cc(C)c(CNC(=O)c2nc(N3C[C@@H]4[C@@H](N)[C@@H]4C3)nc(-c3ccnn3C)c2C)c(=O)[nH]1` [Example 56, 2-[(1R,5S,6S)-6-amino-3-azabicyclo[3.1.0]hex-3-yl]-N-[(4,6-dimethyl-2-oxo-1,2-dihydropyridin-3-yl)methyl]-5-methyl-6-(1-methyl-1H-pyrazol-5-yl)pyrimidine-4-carboxamide], for which the IC50 came to 3.18 µM.
Regarding `Cc1cc(C)c(CNC(=O)c2nc(OC(C)C)nc(N3CCC[C@@H]3C)c2C)c(=O)[nH]1` [Example 57, N-[(4,6-dimethyl-2-oxo-1,2-dihydropyridin-3-yl)methyl]-2-isopropoxy-5-methyl-6-[(2S)-2 - methylpyrrolidin-1-yl]pyrimidine-4-carboxamide], the half-maximal inhibitory concentration (IC50) was 3.2 µM.
The figure for `Cc1cc(C)c(CNC(=O)c2nc(N3C[C@@H]4C[C@H]3CO4)nc(N3CCC[C@@H]3C)c2C)c(=O)[nH]1` [Example 58, N-[(4,6-dimethyl-2-oxo-1,2-dihydropyridin-3-yl)methyl]-5-methyl-6-[(2S)-2 - methylpyrrolidin-1-yl]-2-[(1S,4S)-2-oxa-5-azabicyclo[2.2.1]hept-5-yl]pyrimidine-4-carboxamide] is 3.52 µM; for `Cc1cc(C)c(CNC(=O)c2ncnc(N3CCCC3(C)C)c2C)c(=O)[nH]1` [Example 59, N-[(4,6-dimethyl-2-oxo-1,2-dihydropyridin-3-yl)methyl]-6-(2,2-dimethylpyrroli-din-1-yl)-5-methylpyrimidine-4-carboxamide] it is 3.91 µM.
In the case of `CCc1nncn1-c1cc(Cl)cc(C(=O)NCc2c(C)cc(C)[nH]c2=O)c1C` [Example 61, 5-chloro-N-[(4,6-dimethyl-2-oxo-1,2-dihydropyridin-3-yl)methyl]-3-(3-ethyl-4H-1,2,4-triazol-4-yl)-2-methylbenz-amide] it was 4.21 µM.
The figure for `Cc1cc(C)c(CNC(=O)c2cc(Cl)cc(-n3c(C)nnc3C)c2C)c(=O)[nH]1` [Example 62, 5-chloro-N-[(4,6-dimethyl-2-oxo-1,2-dihydropyridin-3-yl)methyl]-3-(3,5-dimethyl-4H-1,2,4-triazol-4-yl)-2-methylbenz-amide] is 4.22 µM; for `Cc1cc(C)c(CNC(=O)c2cc(Cl)cc(-n3nccc3C)c2C)c(=O)[nH]1` [Example 63, 5-chloro-N-[(4,6-dimethyl-2-oxo-1,2-dihydropyridin-3-yl)methyl]-2-methyl-3-(5-methyl-1H-pyrazol-1-yl)benzamide] it is 4.38 µM; for `Cc1cc(C)c(CNC(=O)c2cccc(-c3c(C)ncnc3C)c2C)c(=O)[nH]1` [Example 64, N-[(4,6-dimethyl-2-oxo-1,2-dihydropyridin-3-yl)methyl]-3-(4,6-dimethylpyrimi-din-5-yl)-2-methylbenz-amide] it is 4.42 µM.
`COC1CCN(c2nc(C(=O)NCc3c(C)cc(C)[nH]c3=O)c(C)c(-c3ccnn3C)n2)CC1` [Example 68, N-[(4,6-dimethyl-2-oxo-1,2-dihydropyridin-3-yl)methyl]-2-(4-methoxypiperi-din-1-yl)-5-methyl-6-(1-methyl-1H-pyrazol-5-yl)pyrimidine-4-carboxamide]: the IC50 was 5.19 µM.
In the case of `Cc1cc(C)c(CNC(=O)c2ccnc(N3CCC[C@@H]3C)c2Cl)c(=O)[nH]1` [Example 69, 3-chloro-N-[(4,6-dimethyl-2-oxo-1,2-dihydropyridin-3-yl)methyl]-2-[(2S)-2-methylpyrroli-din-1-yl]isonicotinamide] it was 5.19 µM; in that of `Cc1cc(C)c(CNC(=O)c2cccc(-c3c(C)nn(C)c3C)c2C)c(=O)[nH]1` [Example 70, N-[(4,6-dimethyl-2-oxo-1,2-dihydropyridin-3-yl)methyl]-2-methyl-3-(1,3,5-trimethyl-1H-pyrazol-4-yl)benzamide], 5.21 µM.
Take `Cc1cc(C)c(CNC(=O)c2ncnc(N3CCC[C@@H]3C)c2C)c(=O)[nH]1` [Example 71, N-[(4,6-dimethyl-2-oxo-1,2-dihydropyridin-3-yl)methyl]-5-methyl-6-[(2S)-2-methylpyrroli-din-1-yl]pyrimidine-4-carboxamide]: the IC50 was determined as 6.33 µM.
In the case of `CSc1nc(C(=O)NCc2c(C)cc(C)[nH]c2=O)c(C)c(-c2ccnn2C)n1` [Example 72, N-[(4,6-dimethyl-2-oxo-1,2-dihydropyridin-3-yl)methyl]-5-methyl-6-(1-methyl-1H-pyrazol-5-yl)-2-(methylthio) pyrimidine-4-carboxamide] it was 6.37 µM; in that of `Cc1cc(C)c(CNC(=O)c2ncnc(N3CCC(C)(C)C3)c2C)c(=O)[nH]1` [Example 73, N-[(4,6-dimethyl-2-oxo-1,2-dihydropyridin-3-yl)methyl]-6-(3,3-dimethylpyrroli-din-1-yl)-5-methylpyrimi-dine-4-carboxamide], 6.5 µM; in that of `Cc1cc(C)c(CNC(=O)c2nc(OCc3cncnc3)nc(-c3ccnn3C)c2C)c(=O)[nH]1` [Example 74, N-[(4,6-dimethyl-2-oxo-1,2-dihydropyridin-3-yl)methyl]-5-methyl-6-(1-methyl-1H-pyrazol-5-yl)-2-(pyrimidin-5-ylmethoxy)pyri-midine-4-carboxamide], 6.61 µM.
As to `Cc1cc(C)c(CNC(=O)c2ncnc(N3CCOC[C@@H]3C)c2C)c(=O)[nH]1` [Example 75, N-[(4,6-dimethyl-2-oxo-1,2-dihydropyridin-3-yl)methyl]-5-methyl-6-[(3S)-3-methylmorph-olin-4-yl]pyrimidine-4-carboxamide], the IC50 stood at 6.78 µM.
